Assay results as given in patent US9890171B2, “Aldosterone synthase inhibitors” (Boehringer Ingelheim International GmbH, priority 2014, dated 2018).

The compounds below were run against aldosterone synthase (CYP11B2) (Macaca fascicularis, UniProt A0A2K5UPL9) (assay: aldosterone synthase inhibition assay). Settings: cynomolgus adrenal gland mitochondria, 2 μM corticosterone, aldosterone quantified by mass spectrometry.
Assay type: biochemical, cynomolgus monkey
Summary of the method: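 Cynomolgus adrenal mitochondria ([…]) used as CYP11B2 source with 2 μM corticosterone in 100 mM potassium phosphate pH 7.4, 1% DMSO; reaction started with 1 mM NADPH, run 60-90 min at 37° C. Aldosterone measured by mass spectrometry; IC50 from 4-parameter logistic fit, no-NADPH blank as 0%.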

Chain of aldosterone synthase (CYP11B2) (A0A2K5UPL9 1-503): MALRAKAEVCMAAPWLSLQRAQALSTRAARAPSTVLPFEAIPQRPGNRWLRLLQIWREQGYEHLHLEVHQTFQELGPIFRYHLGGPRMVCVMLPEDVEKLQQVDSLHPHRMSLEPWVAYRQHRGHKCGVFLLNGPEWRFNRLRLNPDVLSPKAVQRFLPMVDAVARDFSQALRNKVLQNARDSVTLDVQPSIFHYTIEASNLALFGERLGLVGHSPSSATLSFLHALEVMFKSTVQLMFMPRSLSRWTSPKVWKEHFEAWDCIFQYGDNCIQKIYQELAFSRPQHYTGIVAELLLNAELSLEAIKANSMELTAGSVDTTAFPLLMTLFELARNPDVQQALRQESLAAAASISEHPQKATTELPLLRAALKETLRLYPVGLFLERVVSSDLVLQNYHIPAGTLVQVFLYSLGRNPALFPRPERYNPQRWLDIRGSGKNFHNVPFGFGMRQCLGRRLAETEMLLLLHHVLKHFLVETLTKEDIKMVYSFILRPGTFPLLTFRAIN

| SMILES | IC50 [nM] |
| --- | --- |
| Cc1nnc2ccc(-c3cncc4c3COC3(CC3)C4O)cn12 (single isomer, unassigned) [Compound 93, 8-(3-methyl-[1,2,4]triazolo[4,3-a]pyridin-6-yl)spiro[1,4-dihydropyrano[4,3-c]pyridine-3,1′-cyclopropane]-4-ol] | 271 |
| Cc1nnc2ccc(-c3cncc4c3COCC4O)cn12 (single isomer, unassigned) [Compound 95, 8-(3-Methyl-[1,2,4]triazolo[4,3-a]pyridin-6-yl)-3,4-dihydro-1H-pyrano[4,3-c]pyridin-4-ol] | 766 |
| Cc1nnc2ccc(-c3cncc4c3COCC4O)cn12 (single isomer, unassigned) [Compound 97, 8-(3-Methyl-[1,2,4]triazolo[4,3-a]pyridin-6-yl)-3,4-dihydro-1H-pyrano[4,3-c]pyridin-4-ol] | 205 |
| OC1COCc2c(-c3ccc4nncn4c3)cncc21 (single isomer, unassigned) [Compound 98, 8-[1,2,4]Triazolo[4,3-a]pyridin-6-yl-3,4-dihydro-1H-pyrano[4,3-c]pyridin-4-ol] | 1300 |
| OC1COCc2c(-c3ccn4ccnc4c3)cncc21 (single isomer, unassigned) [Compound 99, 8-Imidazo[1,2-a]pyridin-7-yl-3,4-dihydro-1H-pyrano[4,3-c]pyridin-4-ol] | 5000 |
| OC1COCc2c(-c3ccc4nncn4c3)cncc21 (single isomer, unassigned) [Compound 100, 8-[1,2,4]Triazolo[4,3-a]pyridin-6-yl-3,4-dihydro-1H-pyrano[4,3-c]pyridin-4-ol] | 2300 |
| OC1COCc2c(-c3ccn4ccnc4c3)cncc21 (single isomer, unassigned) [Compound 101, 8-Imidazo[1,2-a]pyridin-7-yl-3,4-dihydro-1H-pyrano[4,3-c]pyridin-4-ol] | 225 |
| NC(=O)c1cccc2cc(-c3cncc4c3COCC4O)cnc12 (single isomer, unassigned) [Compound 104, 3-(4-Hydroxy-3,4-dihydro-1H-pyrano[4,3-c]pyridin-8-yl)-quinoline-8-carboxylic acid amide] | 81 |
| NC(=O)c1cccc2cc(-c3cncc4c3COCC4O)cnc12 (single isomer, unassigned) [Compound 105, 3-(4-Hydroxy-3,4-dihydro-1H-pyrano[4,3-c]pyridin-8-yl)-quinoline-8-carboxylic acid amide] | 51.1 |
| Cn1ncc2c(C#N)cc(-c3cncc4c3COCC4O)cc21 (single isomer, unassigned) [Compound 106, 6-(4-Hydroxy-3,4-dihydro-1H-pyrano[4,3-c]pyridin-8-yl)-1-methyl-1H-indazole-4-carbonitrile] | 599 |
| OC1COCc2c(-c3ccc4c(c3)COCCO4)cncc21 (single isomer, unassigned) [Compound 107, 8-(2,3-Dihydro-5H-benzo[e][1,4]dioxepin-7-yl)-3,4-dihydro-1H-pyrano[4,3-c]pyridin-4-ol] | 79.9 |
| OC1COCc2c(-c3ccc4c(c3)COCCO4)cncc21 (single isomer, unassigned) [Compound 108, 8-(2,3-Dihydro-5H-benzo[e][1,4]dioxepin-7-yl)-3,4-dihydro-1H-pyrano[4,3-c]pyridin-4-ol] | 771 |
| CC(=O)N1Cc2ccc(-c3cncc4c3COCC4O)cc2C1 (single isomer, unassigned) [Compound 109, 1-[5-(4-Hydroxy-3,4-dihydro-1H-pyrano[4,3-c]pyridin-8-yl)-1,3-dihydro-isoindol-2-yl]-ethanone] | 544 |
| OC1c2cncc(-c3ccc4c(c3)COCCO4)c2COC12CC2 (single isomer, unassigned) [Compound 111, 8-(3,5-dihydro-2H-1,4-benzo[e][1,4]dioxepin-7-yl)spiro[1,4-dihydropyrano[4,3-c]pyridine-3,1′-cyclopropane]-4-ol] | 114 |
| OC1c2cncc(-c3ccc4c(c3)COCCO4)c2COC12CC2 (single isomer, unassigned) [Compound 112, 8-(3,5-dihydro-2H-1,4-benzo[e][1,4]dioxepin-7-yl)spiro[1,4-dihydropyrano[4,3-c]pyridine-3,1′-cyclopropane]-4-ol] | 40.9 |
| O=C1CCCc2ccc(-c3cncc4c3COCC4O)cc21 (single isomer, unassigned) [Compound 115, 7-(4-Hydroxy-3,4-dihydro-1H-pyrano[4,3-c]pyridin-8-yl)-3,4-dihydro-2H-naphthalen-1-one] | 580 |
| O=C1CCCc2cc(-c3cncc4c3COCC4O)ccc21 (single isomer, unassigned) [Compound 117, 6-(4-Hydroxy-3,4-dihydro-1H-pyrano[4,3-c]pyridin-8-yl)-3,4-dihydro-2H-naphthalen-1-one] | 103 |
| O=C1NCCc2ccc(-c3cncc4c3COCC4O)cc21 (single isomer, unassigned) [Compound 119, 7-(4-Hydroxy-3,4-dihydro-1H-pyrano[4,3-c]pyridin-8-yl)-3,4-dihydro-2H-isoquinolin-1-one] | 960 |
| O=C1NCCc2cc(-c3cncc4c3COCC4O)ccc21 (single isomer, unassigned) [Compound 120, 6-(4-Hydroxy-3,4-dihydro-1H-pyrano[4,3-c]pyridin-8-yl)-3,4-dihydro-2H-isoquinolin-1-one] | 790 |
| O=C1NCCc2cc(-c3cncc4c3COCC4O)ccc21 (single isomer, unassigned) [Compound 121, 6-(4-Hydroxy-3,4-dihydro-1H-pyrano[4,3-c]pyridin-8-yl)-3,4-dihydro-2H-isoquinolin-1-one] | 95 |
| O=C1CCOc2cc(-c3cncc4c3COCC4O)ccc21 (single isomer, unassigned) [Compound 122, 7-(4-Hydroxy-3,4-dihydro-1H-pyrano[4,3-c]pyridin-8-yl)-chroman-4-one] | 194 |
| CN1CCc2cc(-c3cncc4c3COCC4O)ccc2C1=O (single isomer, unassigned) [Compound 124, 6-(4-Hydroxy-3,4-dihydro-1H-pyrano[4,3-c]pyridin-8-yl)-2-methyl-3,4-dihydro-2H-isoquinolin-1-one] | 1010 |

The next compounds have a lower IC50 than those just listed; values first:

| IC50 [nM] | SMILES |
| --- | --- |
| 26.3 | O=C1CCCc2ccc(-c3cncc4c3COCC4O)cc21 (single isomer, unassigned) [Compound 116, 7-(4-Hydroxy-3,4-dihydro-1H-pyrano[4,3-c]pyridin-8-yl)-3,4-dihydro-2H-naphthalen-1-one] |
| 22.8 | O=c1ccc2cc(-c3cncc4c3COCC4O)ccc2o1 (single isomer, unassigned) [Compound 125, 6-(4-Hydroxy-3,4-dihydro-1H-pyrano[4,3-c]pyridin-8-yl)-chromen-2-one] |
| 18.8 | Cc1noc2ccc(-c3cncc4c3COC3(CC3)C4O)cc12 (single isomer, unassigned) [Compound 114, 8-(3-methyl-1,2-benzoxazol-5-yl)spiro[1,4-dihydropyrano[4,3-c]pyridine-3,1′-cyclopropane]-4-ol] |
| 16.3 | O=C1CCOc2cc(-c3cncc4c3COCC4O)ccc21 (single isomer, unassigned) [Compound 123, 7-(4-Hydroxy-3,4-dihydro-1H-pyrano[4,3-c]pyridin-8-yl)-chroman-4-one] |
| 14.5 | Cn1nc(C#N)c2ccc(-c3cncc4c3COCC4O)cc21 (single isomer, unassigned) [Compound 113, 6-(4-Hydroxy-3,4-dihydro-1H-pyrano[4,3-c]pyridin-8-yl)-1-methyl-1H-indazole-3-carbonitrile] |
| 14 | O=c1ccc2cc(-c3cncc4c3COCC4O)ccc2o1 (single isomer, unassigned) [Compound 126, 6-(4-Hydroxy-3,4-dihydro-1H-pyrano[4,3-c]pyridin-8-yl)-chromen-2-one] |
| 13 | O=c1ccoc2cc(-c3cncc4c3COCC4O)ccc12 (single isomer, unassigned) [Compound 110, 7-(4-Hydroxy-3,4-dihydro-1H-pyrano[4,3-c]pyridin-8-yl)-chromen-4-one] |
| 12.5 | O=C1CCCc2cc(-c3cncc4c3COCC4O)ccc21 (single isomer, unassigned) [Compound 118, 6-(4-Hydroxy-3,4-dihydro-1H-pyrano[4,3-c]pyridin-8-yl)-3,4-dihydro-2H-naphthalen-1-one] |
| 11.5 | Cn1ncc2c(F)cc(-c3cncc4c3COC3(CC3)C4O)cc21 (single isomer, unassigned) [Compound 92, 8-(4-fluoro-1-methyl-indazol-6-yl)spiro[1,4-dihydropyrano[4,3-c]pyridine-3,1′-cyclopropane]-4-ol] |
| 11.2 | CCC(=O)NC1COCc2c(-c3ccc4c(Cl)n[nH]c4c3)cncc21 (single isomer, unassigned) [Compound 128, N-[8-(3-Chloro-1H-indazol-6-yl)-3,4-dihydro-1H-pyrano[4,3-c]pyridin-4-yl]-propionamide] |
| 10.1 | Cc1noc2ccc(-c3cncc4c3COCC4O)cc12 (single isomer, unassigned) [Compound 94, 8-(3-Methyl-benzo[d]isoxazol-5-yl)-3,4-dihydro-1H-pyrano[4,3-c]pyridin-4-ol] |
| 10 | O=C1CCc2cc(-c3cncc4c3COCC4O)ccc21 (single isomer, unassigned) [Compound 103, 5-(4-Hydroxy-3,4-dihydro-1H-pyrano[4,3-c]pyridin-8-yl)-indan-1-one] |
| 8.1 | Cn1ncc2c(F)cc(-c3cncc4c3COCC4O)cc21 (single isomer, unassigned) [Compound 96, 8-(4-Fluoro-1-methyl-1H-indazol-6-yl)-3,4-dihydro-1H-pyrano[4,3-c]pyridin-4-ol] |
| 6.7 | OC1COCc2c(-c3ccc4c(Cl)n[nH]c4c3)cncc21 (single isomer, unassigned) [Compound 127, 8-(3-Chloro-1H-indazol-6-yl)-3,4-dihydro-1H-pyrano[4,3-c]pyridin-4-ol] |
